In patent publication US5422350A, “Nitrogen substituted acridine and cytochrome P450 inhibitors and methods of use” (priority 1992, dated 1995):
Read-outs that look alike come from different tables or passages of the source.

Key:
[1] = tested on: P450 1A2; assay: in vitro; settings: for 1-hydroxytacrine equivalents irreversibly bound to 1 mg microsomal protein: 1-hydroxytacrine 0.5 μM
Experimental: (§1) PHARMACOL., Vol. 42, pp. 767-772 (1990) was conducted. […] The effect of various enoxacin concentrations (8, 20, and 50 μM) on the extent of irreversible binding was examined in a separate study.

[2] = Clinical drug interaction study, tacrine with cimetidine; format: in vivo, human; settings: 40 mg tacrine with 300-mg four times a day cimetidine vs tacrine alone
Source text: A. Somogyi and M. Muirhead, "Pharmacokinetic Interactions of Cimetidine", CLIN. PHARMACOKIN., Vol. 12, pp. 321-366 (1987).

[3] = Single-dose pharmacokinetic and metabolic disposition study of [14C]tacrine HCl in human male volunteers; format: in vivo; settings: for mean AUC(O-tldc), dose proportionality: 10 and 40 mg oral, plasma
Experimental: Plasma and red blood cells (RBC) were collected predose and for 48 hours postdose. Urine and feces were collected predose and for 96 hours postdose. Urine and plasma samples were analyzed directly by liquid scintillation spectrometry while RBC and fecal samples were solubilized prior to counting. […] Metabolic profiling of urine was performed by HPLC radioactivity detection. Metabolites were identified by HPLC/photodiode array/mass spectrometry.

[4] = Irreversible protein binding of 14C-tacrine-derived radioactivity, human liver microsomes; settings: for effect on irreversible protein binding / Tacrine equivalents irreversibly bound to 1 mg microsomal protein: Human Prep B, 60 min; for Tacrine equivalents irreversibly bound to 1 mg microsomal protein: N = 3
Experimental: (§2) Total reaction volume was 3 mL. Reactions were stopped by freezing in liquid nitrogen or dry-ice acetone. […] D. J. Waxman and L. Axaroff, "Phenobarbital induction of cytochrome P-450 Gene Expression", BIOCHEM J, Vol. 281, pp. 577-592 (1992); P. Soucek and I. Gut, supra.
(§3) C. N. Martin and R. C. Garner: "Covalent Binding In Vitro and In Vivo" in BIOCHEMICAL TOXICOLOGY: A PRACTICAL APPROACH, Eds. K. Snell and B. Mullock, IRL, Wash. D.C. pp. 109-126 (1987).

[5] = tested on: ethoxyresorufin O-deethylase; settings: rat liver microsomes, Back et al. (1983); cited from earlier work
[6] = tested on: P450 1A2; settings: cited from earlier work
[7] = tested on: hepatocytes from MC induced male rats; assay: Irreversible binding of 14C-tacrine and 14C-1-hydroxytacrine in MC induced rat hepatocytes; format: in vitro ADME; settings: for inhibition of irreversible binding for both tacrine and 1-hydroxytacrine: relative ranking
[8] = molecular target: T1, P450 1A2 (Homo sapiens, UniProt P05177); assay: in vitro
T1 sequence (P05177 2-516 limits assumed): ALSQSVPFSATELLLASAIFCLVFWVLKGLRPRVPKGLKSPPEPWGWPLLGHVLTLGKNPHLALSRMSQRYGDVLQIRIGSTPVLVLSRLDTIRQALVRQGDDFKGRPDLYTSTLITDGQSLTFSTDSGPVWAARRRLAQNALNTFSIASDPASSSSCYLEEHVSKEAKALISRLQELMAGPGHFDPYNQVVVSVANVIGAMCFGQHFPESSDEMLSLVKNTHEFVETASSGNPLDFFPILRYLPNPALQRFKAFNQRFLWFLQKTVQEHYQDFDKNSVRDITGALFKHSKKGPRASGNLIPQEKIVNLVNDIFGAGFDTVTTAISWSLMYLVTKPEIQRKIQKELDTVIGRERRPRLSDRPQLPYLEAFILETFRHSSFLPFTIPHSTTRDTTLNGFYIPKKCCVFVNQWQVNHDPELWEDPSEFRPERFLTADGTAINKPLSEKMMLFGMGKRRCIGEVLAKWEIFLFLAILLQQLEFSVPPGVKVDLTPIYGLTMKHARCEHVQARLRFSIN
Experimental: as §1

[9] = Irreversible protein binding of 14C-tacrine-derived radioactivity, rat liver microsomes; settings: for effect on irreversible protein binding / Tacrine equivalents irreversibly bound to 1 mg microsomal protein: MC induced Rat, 60 min; for Tacrine equivalents irreversibly bound to 1 mg microsomal protein: N = 3; for effect of pretreatment on binding: rat
Experimental: as §2, §3

[10] = In vitro metabolism of 14C-tacrine in rat liver microsomes; settings: microsomes from pretreated rats vs control
Experimental: as §2

[11] = tested on: P450 2D6; settings: cited from earlier work
[12] = Clinical interaction, theophylline with tacrine; format: in vivo, human; settings: single 158-mg theophylline with repeated 20-mg tacrine
Source text: M. E. Campbell, D. M. Grant, T. Inaba, and W. Kalow, "Biotransformation of Caffeine, Paraxanthine, Theophylline, and Theobromine by polycyclic Aromatic Hydrocarbon-Inducible Cytochrome(s) P-450 in Human Liver Microsomes", DRUG METAB. DISPOS. Vol. 15, pp. 237-249 (1987). Therefore, a potential explanation for the theophylline-tacrine clinical interaction is competition for the same P450 1A2 enzymes.

[13] = 1-hydroxytacrine 10 uM + inhibitor 50 uM
[14] = tacrine 10 uM + inhibitor 50 uM
[15] = 20 min, read-out: inhibition of 1-hydroxytacrine irreversible binding
[16] = 20 min, read-out: inhibition of tacrine irreversible binding

## Nc1c2c(nc3ccccc13)CCCC2O (stereo not shown) [1-Hydroxytacrine, 1-hydroxytacrine]
[1]; 1-hydroxytacrine
  irreversible binding to human microsomal protein: found to bind irreversibly
[1]; enoxacin 0.0, 20 min
  1-hydroxytacrine equivalents irreversibly bound to 1 mg microsomal protein: 0.018 ± 0.001
[1]; Table 6, deletion of NADPH
  irreversible binding of derived radioactivity to microsomal protein: no irreversible
[2]
  higher plasma concentrations: approximately 40%
[3]
  mean AUC(O-tldc), dose proportionality: increased greater than dose proportionally
[3]; all volunteers
  elimination rate from plasma: appeared to be limited by the rate of formation
[3]; smokers compared to nonsmokers
  excretion and 1-hydroxytacrine plasma concentrations in cigarette smokers: decreased excretion and lower 1-hydroxytacrine plasma concentrations

## Nc1c2c(nc3ccccc13)CCC(O)C2 (stereo not shown) [2-hydroxytacrine]
[3]
  mean AUC(O-tldc), dose proportionality: increased greater than dose proportionally

## Nc1c2c(nc3ccc(O)cc13)CCCC2 [7-Hydroxytacrine, 7-hydroxytacrine]
[4]; time course through 1 hour
  levels over time: levels rise then fall over time

## CCN(CC)CCCC(C)Nc1ccnc2cc(Cl)ccc12 (stereo not shown) [Chloroquine, 7-chloro-4-(4-diethylamino-1-methylbutylamino)quinoline]
[5]
  inhibition of ethoxyresorufin O-deethylase activity: inhibitors of ethoxyresorufin O-deethylase activity

## CN/C(=N/CCSCc1nc[nH]c1C)NC#N [Cimetidine, N-cyano-N'-methyl-N"-[2[[(5-methyl-1H-imidazol-4-yl)methyl]thio]ethyl]guanidine]
[6]
  inhibition of P450 enzymes including P450 1A2: inhibitor of P450 enzymes including P450 1A2

## CCn1cc(C(=O)O)c(=O)c2cc(F)c(N3CCNCC3)nc21 [Enoxacin]
[7]; [13]
  irreversible binding of 1-hydroxytacrine-derived radioactivity, Percent Control Value: 79.8%
[7]
  inhibition of irreversible binding for both tacrine and 1-hydroxytacrine: less of an effect
[7]; [14]
  irreversible binding of tacrine-derived radioactivity, Percent Control Value: 78.9%
[6]
  P450 1A2 inhibition: selective inhibitor of P450 1A2
[8]; 50 μM enoxacin vs 8, 20 μM
  inhibition of tacrine irreversible binding and biotransformation: greatest inhibition
[8]; [15]
  inhibition at 8 µM: 8.2%
  inhibition at 20 µM: 22.2%
  inhibition at 50 µM: 51.7%
[8]; [16]
  inhibition at 8 µM: 14.4%
  inhibition at 20 µM: 29.8%
  inhibition at 50 µM: 43.4%
[8]; enoxacin 8, 20, 50 μM
  effect on the binding of 1-hydroxytacrine: inhibitory effect
[8]; read-out: inhibition of extent of irreversible binding (maximum)
  inhibition at 50 µM: ≤ 73%
[1]; enoxacin 8.0, 20 min
  1-hydroxytacrine equivalents irreversibly bound to 1 mg microsomal protein: 0.017 ± 0.001
[1]; enoxacin 20.0, 20 min
  1-hydroxytacrine equivalents irreversibly bound to 1 mg microsomal protein: 0.014 ± 0.001
[1]; enoxacin 50.0, 20 min
  1-hydroxytacrine equivalents irreversibly bound to 1 mg microsomal protein: 0.009 ± 0.001
[1]; Table 6, tacrine 0.3 μM, line below enoxacin 50.0 (concentration not given), 20 min
  Tacrine equivalents irreversibly bound to 1 mg microsomal protein: 0.023 ± 0.002
[1]; Table 6, tacrine 0.3 μM, line of enoxacin 20.0, 20 min
  Tacrine equivalents irreversibly bound to 1 mg microsomal protein: 0.036 ± 0.008
[1]; Table 6, tacrine 0.3 μM, line of enoxacin 50.0, 20 min
  Tacrine equivalents irreversibly bound to 1 mg microsomal protein: 0.028 ± 0.001
[1]; tacrine 0.5 μM + enoxacin 50 μM, 5 min
  Tacrine equivalents irreversibly bound to 1 mg microsomal protein: 0.009 ± 0.002 nmol
[1]; tacrine 0.5 μM + enoxacin 50 μM, 10 min
  Tacrine equivalents irreversibly bound to 1 mg microsomal protein: 0.017 ± 0.003 nmol
[1]; tacrine 0.5 μM + enoxacin 50 μM, 20 min
  Tacrine equivalents irreversibly bound to 1 mg microsomal protein: 0.026 ± 0.002 nmol
[1]; tacrine 0.5 μM + enoxacin 50 μM, 45 min
  Tacrine equivalents irreversibly bound to 1 mg microsomal protein: 0.052 ± 0.006 nmol

## CCn1cnc(C(=O)NC)c1C(=O)NC [Ethimizol]
[7]; [13]
  irreversible binding of 1-hydroxytacrine-derived radioactivity, Percent Control Value: 65.6%
[7]
  inhibition of irreversible binding for both tacrine and 1-hydroxytacrine: less of an effect
[7]; [14]
  irreversible binding of tacrine-derived radioactivity, Percent Control Value: 80.1%

## Cc1nc2c([nH]1)c(=O)n(C)c(=O)n2Cc1ccco1 [Furafylline, 1H-purine-2,6-dione, 3-(2-furanylmethyl)-3,7-dihydro-1,8-dimethyl]
[7]; [13]
  irreversible binding of 1-hydroxytacrine-derived radioactivity, Percent Control Value: 31.7%
[7]
  inhibition of irreversible binding for both tacrine and 1-hydroxytacrine: most effective inhibitor
[7]; [14]
  irreversible binding of tacrine-derived radioactivity, Percent Control Value: 31.6%

## N[C@@H](CCC(=O)N[C@@H](CS)C(=O)NCC(=O)O)C(=O)O [Glutathione]
[7]; 1-hydroxytacrine 10 uM + glutathione 5 mM
  irreversible binding of 1-hydroxytacrine-derived radioactivity, Percent Control Value: 49.1%
[7]; tacrine 10 uM + glutathione 5 mM
  irreversible binding of tacrine-derived radioactivity, Percent Control Value: 62.6%
[9]; with GSH (5 mM)
  effect on irreversible protein binding: 58.3
  Tacrine equivalents irreversibly bound to 1 mg microsomal protein: 0.058 ± 0.005 nmol
[4]
  detectable adducts with the reactive intermediate: failed to produce detectable adducts
  effect on irreversible binding: dramatic reduction in irreversible binding
[4]; with GSH (5 mM)
  effect on irreversible protein binding: 85.0
  Tacrine equivalents irreversibly bound to 1 mg microsomal protein: 0.031 ± 0.001 nmol

## NNC(=O)c1ccncc1 [Isoniazid]
[9]
  effect of pretreatment on binding: little or no effect on binding
[10]
  effect of pretreatment (induction) on 1-hydroxytacrine formation: markedly increased 1-hydroxytacrine formation

## Cc1ccc2cc3c(ccc4ccccc43)c3c2c1CC3 [MC, 3-methylcholanthrene]
[9]; MC induced rat
  increase in binding compared to control rat: ~3 fold
[10]
  effect of pretreatment (induction) on 1-hydroxytacrine formation: Less 1-hydroxytacrine was observed

## CCC1(c2ccccc2)C(=O)NC(=O)NC1=O [Phenobarbital]
[9]
  effect of pretreatment on binding: little or no effect on binding
[10]
  effect of pretreatment (induction) on 1-hydroxytacrine formation: only a minimal effect on 1-hydroxytacrine formation

## COc1cc(NC(C)CCCN)c2ncccc2c1 (stereo not shown) [Primaquine, 8-(4-amino-1-methylbutylamino)-6-methoxyquinoline]
[5]
  inhibition of ethoxyresorufin O-deethylase activity: inhibitors of ethoxyresorufin O-deethylase activity

## C=C[C@H]1C[N@@]2CC[C@H]1C[C@@H]2[C@@H](O)c1ccnc2ccc(OC)cc12 [Quinidine]
[11]
  P450 2D6 inhibition: inhibitor of P450 2D6

## Cn1c(=O)c2[nH]cnc2n(C)c1=O [Theophylline]
[12]
  increase in theophylline elimination half-life: two-fold
[6]
  major route of clearance: metabolism by P450 1A2

B1: EH: human liver expoxide hydrase (EH) (protein, UniProt P07099 1-455, looked up)
Epoxide hydrolase 1: MWLEILLTSVLGFAIYWFISRDKEETLPLEDGWWGPGTRSAAREDDSIRPFKVETSDEEIHDLHQRIDKFRFTPPLEDSCFHYGFNSNYLKKVISYWRNEFDWKKQVEILNRYPHFKTKIEGLDIHFIHVKPPQLPAGHTPKPLLMVHGWPGSFYEFYKIIPLLTDPKNHGLSDEHVFEVICPSIPGYGFSEASSKKGFNSVATARIFYKLMLRLGFQEFYIQGGDWGSLICTNMAQLVPSHVKGLHLNMALVLSNFSTLTLLLGQRFGRFLGLTERDVELLYPVKEKVFYSLMRESGYMHIQCTKPDTVGSALNDSPVGLAAYILEKFSTWTNTEFRYLEDGGLERKFSLDDLLTNVMLYWTTGTIISSQRFYKENLGQGWMTQKHERMKVYVPTGFSAFPFELLHTPEKWVRFKYPKLISYSYMVRGGHFAAFEEPELLAQDIRKFLSVLERQ
[9]; with EH (100 ug)
  effect on irreversible protein binding: 16.6
  Tacrine equivalents irreversibly bound to 1 mg microsomal protein: 0.116 ± 0.007 nmol
[4]
  detectable adducts with the reactive intermediate: failed to produce detectable adducts
[4]; 14C tacrine incubations (Table 3, human and rat)
  effect on irreversible binding: only a slight decrease in binding
[4]; with EH (100 ug)
  effect on irreversible protein binding: 35.3
  Tacrine equivalents irreversibly bound to 1 mg microsomal protein: 0.134 ± 0.026 nmol
